According to US11406592B2, “Drug delivery methods, structures, and compositions for nasolacrimal system” (Mati Therapeutics Inc., priority 2006, dated 2022):
Blank lines part the entries; values can stand above or below the compound they belong to.

Experiments:
[1] = Latanoprost drug core elution study (in vitro), 7.4 pH buffer, HPLC; type: physicochemical; details: for Duration: calculated time when ~10% of original drug remains
Excerpt: Drug cores as described above have been fabricated with different cross sectional sizes of 0.006 inches, 0.012 inches, and 0.025 inches, and drug concentrations of 5%, 10% and 20% in a silicone matrix. Theses drug cores can be made with a Syringe Tube and Cartridge Assembly, Mixing Latanoprost with Silicone, and Injecting the mixture into a polyimide tube which is cut to desired lengths and sealed. The length of the drug cores were approximately 0.80 to 0.95 mm, which for a diameter of 0.012 inches (0.32 mm) corresponds to total Latanoprost content in the drug cores of approximately 3.5 μg, 7 μg and 14 μg for concentrations of 5%, 10% and 20%, respectively.
Syringe Tube and Cartridge Assembly. 1. Take polyimide tubing of three different diameters 0.006 inches, 0.0125 inches and 0.025 inches. 2. Cut polyimide tubing of different diameters to ˜15 cm length. 3. Insert Polyimide tubes into a Syringe Adapter. 4. Adhesive bond polyimide tube into luer adapter (Loctite, low viscosity UV cure). 5. Trim end of assembly. 6. Clean the cartridge assembly using distilled water and then with methanol and dry it in oven at 60° C.
Mix Latanoprost with Silicone. Prepare Latanoprost. Latanoprost is provided as a 1% solution in methylacetate. Place the appropriate amount of solution into a dish and using a nitrogen stream, evaporate the solution until only the Latanoprost remains. Place the dish with the Latanoprost oil under vacuum for 30 minutes. Combine Latanoprost with silicone. Prepare three different concentrations of Latanoprost (5%, 10% and 20%) in silicon Nusil 6385 and inject it into tubing of different diameters (0.006 in, 0.012 in and 0.025 inches) to generate 3×3 matrixes. The percent of Latanoprost to silicone is determined by the total weight of the drug matrix. Calculation: Weight of Latanoprost/(weight of Latanoprost+weight of silicone)×100=percent drug.
Inject tube. 1. Insert Cartridge and Polyimide tubes assembly into 1 ml syringe. 2. Add one drop of catalyst, (MED-6385 Curing Agent) in the syringe. 3. Force excess catalyst out of the polyimide tube with clean air. 4. Fill syringe with silicone drug matrix. 5. Inject tube with drug matrix until the tube is filled or the syringe plunger becomes too difficult to push. 6. Close off the distal end of the polyimide tube and maintain pressure until the silicone begins to solidify. 7. Allow to cure at room temperature for 12 hours. 8. Place under vacuum for 30 minutes. 9. Place tube in right size trim fixture (prepared in house to hold different size tubing) and cut drug inserts to length (0.80-0.95 mm).
Testing. Elution study (in vitro). 1. Place 10 plugs of same size and same concentration per centrifuge tube and add 1.5 ml of 7.4 pH buffer solution to it. 2. Change the solvent with fresh 7.4 pH buffer after appropriate time. 3. Take HPLC of the eluant at 210 nm with PDA detector 2996 using Sunfire C18, 3 mm×10 mm column (Waters Corporation, Milford, Mass.). Acetonitrile and water mixture is used for gradient elution. Calibration was done in house before and after each analysis, using in-house standards with precisely weighed concentration of Latanoprost. 4. Calculate the amount of drug release per day per device for different size tubings having different concentrations of Latanoprost. 5. Plot elution rate vs area and concentration for day 1 and day 14.

[2] = Latanoprost elution from drug cores of four formulations (silicone 4011, 6385 and/or NaCl); type: physicochemical; details: formulations A-D, non-sterile drug cores
Excerpt: Drug cores were manufactured as described above with Latanoprost and silicone 4011, 6385 and/or NaCl. Four formulations were manufactured as follows: A) silicone 4011, approximately 20% Latanoprost, and approximately 20% NaCL; B) silicone 4011, approximately 20% Latanoprost, and approximately 10% NaCl; C) silicone 4011, approximately 10% Latanoprost, and approximately 10% NaCl; and D) silicone 6385, approximately 20% Latanoprost. […] The results shown are for non-sterile drug cores. Similar results have been obtained with sterile drug cores of Latanoprost.

IOP = details: cited from earlier work
[3] = Bimatoprost bulk sample elution, normalized to ng per device per day; type: physicochemical; details: for zero order elution rate: about 90 days
Description: Bulk samples of 1% Bimatoprost having a known diameter of 0.076 cm (0.76 mm) were prepared. The height of each sample was determined from the weight and known diameter of the sample.
The calculated heights ranged from 0.33 cm to 0.42 cm. The exposed surface area on each end of each bulk sample was approximately 0.045 cm^2, providing volumes of 0.019 cm^3 and 0.015 cm^3 for the 0.42 and 0.33 cm samples, respectively. The exposed an exposed surface area of samples calculated from the height and diameter without a drug sheath was approximately 0.1 cm^2. Three formulations were evaluated: 1) silicone 4011, 1% Bimatoprost, 0% surfactant; 2) silicone 4011, 1% Bimatoprost, approximately 11% surfactant; and 3) silicone 4011, 1% Bimatoprost, approximately 33% surfactant. The elution data measured for the bulk samples with formulation 1, 2 and 3 were normalized to ng per device per day (ng/device/day) assuming a surface area of the bulk device is 0.1 cm^2 and the surface area of the clinical device is 0.00078 cm^2 (0.3 mm diameter). […] The normalized elution profile is about 10 ng per day. […] Similar formulations can be used with drug core sheaths and a shaped exposed surface of the core exposed to the tear to increase the exposed surface area as described above and deliver the drug in therapeutic amounts over an extended period.
In some embodiments, the core can comprise a 0.76 mm diameter core with an exposed surface diameter of 0.76 mm, corresponding to an exposed surface area of 0.0045 cm^2. The core can be covered with a sheath to define the exposed surface of the core as described above The normalized elution profile for such a device, based on the bulk sample data above, is approximately 6 times (0.0045 cm^2/0.00078 cm^2) the elution profile for the device with a 0.3 mm diameter exposed surface area. Thus, a zero order elution profile with an elution rate of about 60 ng per day can be obtained over a period of about 90 days. If the exposed surface area is increased to about 0.0078 cm2, for example with many of the exposed surface shapes as described above, the zero order elution rat is about 100 ng per day over a period of about 90 days. The concentration can also be increased from 1%. Similar elution profiles can be obtained with Latanoprost.

elution rate compared with the 14 μg core ([1]; 7 μg core (10%), 0.32 mm diameter, 0.95 mm long, from 10 to 20 days): comparable rates | elution rate ([1]; 14 μg core (20%), 0.32 mm diameter, 0.95 mm long, from about 10 to 40 days): approximately 100 ng per day | initial elution of Latanoprost from the plug ([1]; buffered saline elution system, initially): approximately 500 ng per day | elution of Latanoprost from the plug after drop-off ([1]; buffered saline elution system, within 7-14 days, depending on initial concentration): approximately 100 ng/day | quantity of Latanoprost released ([1]; day 1, 0.006 inch diameter core (exposed surface area 0.02 mm^2)): about 200 ng | quantity of Latanoprost released ([1]; day 1, 0.012 inch diameter core (exposed surface area 0.07 mm^2)): ~400 ng | quantity of Latanoprost released ([1]; day 1, 0.025 inch diameter core (exposed surface area 0.32 mm^2)): ~1200 ng | quantity of Latanoprost released ([1]; day 14, 0.006 inch diameter core (exposed surface area 0.02 mm^2)): about 25 ng | quantity of Latanoprost released ([1]; day 14, 0.012 inch (0.32 mm) diameter core (exposed surface area 0.07 mm^2)): ~100 ng | quantity of Latanoprost released ([1]; day 14, 0.025 inch diameter core (exposed surface area 0.32 mm^2)): ~300 ng | Duration ([1]; total Latanoprost content 3.5 μg): ~25 days | Duration ([1]; total Latanoprost content 7 μg): ~45 days | Duration ([1]; total Latanoprost content 14 μg): ~100 days | elution rate ([2]; by 3 weeks (21 days)): about 100 ng per device per day | initial elution rate ([2]; initial): approximately 300 ng per device per day
SMILES: CC(C)OC(=O)CCC/C=C\C[C@@H]1[C@@H](CC[C@@H](O)CCc2ccccc2)[C@H](O)C[C@@H]1O [Latanoprost]
time effective in lowering IOP (IOP; about 200 ng of drug remaining on the eye after a drop of Xalatan): at least 24 hours | IOP reduction relative to the 50 μg/mL QD dose (IOP; lowest doses of 12.5 μg/mL QD or 15 μg/mL BID): 60-75%

zero order elution rate ([3]; extrapolated from bulk data to 0.76 mm exposed surface diameter (0.0045 cm^2)): about 60 ng per day | zero order elution rate ([3]; extrapolated from bulk data to exposed surface area about 0.0078 cm2): about 100 ng per day | normalized elution profile ([3]; silicone 4011 with 1% Bimatoprost, formulations 1-3 (0%, 11%, 33% surfactant), normalized to 0.3 mm exposed surface diameter (0.00078 cm^2)): about 10 ng per day
SMILES: CCNC(=O)CCC/C=C\C[C@@H]1[C@@H](/C=C/[C@@H](O)CCc2ccccc2)[C@H](O)C[C@@H]1O [Bimatoprost]
release kinetics ([3]; each of formulations 1-3, from about ten days to about 90 days): approximately zero order release kinetics
